{"source": "paper PMC5465072", "about": "(Scientific Reports, 2017)", "key": {"[1]": {"target": "His6-PA596–735 / GST-CMG2_38–218 interaction (Homo sapiens, UniProt P58335)", "sequence (P58335 38-218 limits assumed)": "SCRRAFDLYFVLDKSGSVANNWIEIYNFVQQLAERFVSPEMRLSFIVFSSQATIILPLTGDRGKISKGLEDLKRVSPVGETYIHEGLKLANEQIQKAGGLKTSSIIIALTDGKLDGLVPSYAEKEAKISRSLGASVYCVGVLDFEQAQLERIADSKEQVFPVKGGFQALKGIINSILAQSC", "assay": "biochemical", "assay_type": "biochemical, Bacillus anthracis PA / human CMG2"}, "CMG2_38–218": {"target": "CMG2_38–218 (Homo sapiens, UniProt P58335)", "sequence (P58335 38-218)": "as the sequence (P58335 38-218 limits assumed) above", "assay": "biochemical", "assay_type": "binding"}, "[2]": {"target": "His6-PA488–735 / GST-CMG2_38–218 interaction (UniProt P13423+P58335)", "sequence (P13423 517-764 limits assumed)": "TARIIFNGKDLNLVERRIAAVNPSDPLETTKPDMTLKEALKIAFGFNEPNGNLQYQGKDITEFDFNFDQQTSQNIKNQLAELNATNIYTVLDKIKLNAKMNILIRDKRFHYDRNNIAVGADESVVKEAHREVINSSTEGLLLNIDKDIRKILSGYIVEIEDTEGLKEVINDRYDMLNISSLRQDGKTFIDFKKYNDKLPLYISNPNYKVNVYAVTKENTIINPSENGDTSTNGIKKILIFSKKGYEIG", "sequence (P58335 38-218 limits assumed)": "as the sequence (P58335 38-218 limits assumed) above", "assay": "biochemical", "parameters": "species or system Bacillus anthracis PA / human CMG2"}, "J774 cells": {"test_system": "J774 cells", "assay_type": "cell-based"}}, "note": "“Also recorded” adds a separate entry of the source. Square brackets hold non-standard residues; d marks the D form. Ends that are not written are not given here. Peptide text beside a SMILES is read from it. Phe(4-Cl) = N[C@@H](Cc1ccc(Cl)cc1)C(=O)O"}
{"compound": "CLRFT [CLRFT]", "values": [{"measurement": "IC50", "setting": "[1]", "result": "71.3 ± 6.5", "unit": "µM"}, {"measurement": "Kd", "setting": "CMG2_38–218", "result": "30.2 ± 1.2", "unit": "µM"}, {"measurement": "IC50", "setting": "[2]", "result": "77.1 ± 9.5", "unit": "µM"}]}
{"compound": "CC(C)C[C@H](NC(=O)[C@@H](N)CS)C(=O)N[C@@H](CCCNC(=N)N)C(=O)N[C@@H](Cc1ccc(Cl)cc1)C(=O)N[C@H](C(=O)O)[C@@H](C)O", "note": "[CLR(4-Cl-F)T] (H-CLR[Phe(4-Cl)]T-OH)", "values": [{"measurement": "concentration that protects J774 cells from lethal toxin", "setting": "J774 cells", "result": "≥ 50", "unit": "µM"}]}
{"compound": "CMNHFPA [CMNHFPA]", "values": [{"measurement": "IC50 for disruption of the interaction of His6-PA596–735 and GST-CMG2_38–218", "setting": "[1]", "result": "not active; also recorded: lost all activity"}, {"measurement": "IC50", "setting": "[2]", "result": "49.8 ± 2.7", "unit": "µM"}]}
{"compound": "CLRPT [CLRPT]", "values": [{"measurement": "IC50", "setting": "[2]", "result": "153 ± 2.9", "unit": "µM"}]}
{"compound": "H-CMNHAPA-OH [CMNHAPA]", "values": [{"measurement": "IC50", "setting": "[2]", "result": "522 ± 47.8", "unit": "µM"}, {"measurement": "fold loss of activity in PA/CMG2 ELISA over the parent peptide CMNHFPA", "setting": "[2]", "result": 10, "unit": "fold"}]}
{"compound": "FCRTL", "values": [{"measurement": "IC50 for disruption of the interaction of His6-PA488–735 and GST-CMG2_38–218", "setting": "[2]", "result": "inactive"}]}
{"compound": "(4-Cl-F)CRTL", "values": [{"measurement": "protection of J774 cells from lethal toxin", "setting": "J774 cells", "result": "No protective effect; also recorded: no such protection"}]}
{"compound": "HPCNAMF [HPCNAMF]", "values": [{"measurement": "IC50", "setting": "[2]", "result": "153 ± 9.3", "unit": "µM"}, {"measurement": "fold loss of activity in PA/CMG2 ELISA over the parent peptide CMNHFPA", "setting": "[2]", "result": 3, "unit": "fold"}]}
